Read-outs that look alike come from different tables or passages of the source.
Key:
C57BL/6 DIO mice [1] = experiment: Body weights of C57BL/6 DIO mice during daily treatment; type: in vivo; settings: Celastrol 0.2 mg/kg IP daily; for Body weights (expressed as a percentage of day-1 weight) / Body weights (in grams): Belaronib 0.3 mg/kg SC, mean
C57BL/6 DIO mice [2] = experiment: Daily food intake of C57BL/6 DIO mice; type: in vivo; settings: for Food intake (food weights in g/day): Belaronib 0.3 mg/kg SC, Celastrol 0.2 mg/kg IP daily, mean
Protocol: (§1) C57BL/6 mice were treated with test compound (Celastrol) or controls as shown in the table below from Day 1 to Day 15. […] One mouse was excluded from the study because it appeared resistant to nestlet shredding prior to treatment.
(§2) Male C57BL/6 DIO mice were obtained from Jackson Labs (Bar Harbor, ME). The mice arrived at ages 17 weeks and mice were housed 3 per cage on arrival. Prior to dosing in the study, the mice were singly housed.
(§3) All treatment volumes were 10 mL/kg. Utilizing the art-recognized nestlet shredding mouse model, […]. Celastrol and the vehicle control were administered intraperitoneally using a 30G needle. Beloranib was administered subcutaneously using a 30G needle. All treatments were administered daily in the afternoon at 17:00 h, 1 hour before dark cycle from Day 1 to end of dosing.
(§4) Celastrol was dissolved in a pharmaceutically-acceptable excipient, e.g., 50% Solutol/50% DMAC, and this stock solution aliquoted and stored at −80° C. until treatment day. On the day of treatment, an aliquot of the stock solution was thawed and diluted […] with saline to obtain the desired dosing solution strength in 5% Solutol/5% dimethylacetamide/90% saline. The vehicle control was 5% Solutol/5% dimethylacetamide/90% saline. Beloranib was dissolved in 100% DMSO, and this stock solution was aliquoted and stored at −80° C. until treatment day. On the day of treatment, an aliquot of the stock solution was thawed and diluted 1:10 with deionized (DI) water to obtain the desired dosing solution strength in 10% DMSO.
Daily food intake was calculated based on remaining food weight compared to food weight on the previous day using an Ohaus model CS 200 balance.

C57BL/6 DIO mice [3] = experiment: Nestlet shredding test in C57BL/6 DIO mice; type: in vivo; settings: Belaronib 0.3 mg/kg SC, Celastrol 0.2 mg/kg IP daily, mean
Protocol: as §1, §2, §3, §4
The nestlet shredding test is an art-recognized animal model for human repetitive, anxiety, and/or compulsive behaviors. In the nestlet shredding test, a nestlet comprised of pulped fiber, e.g., cotton fiber, is preweighed and placed on top of cage bedding and the amount of the nestlet remaining intact after a test session of pre-determined time is evaluated.
Nestlet shredding was determined on day 1, day 6, day 11 and day 15 by placing a fresh nestlet prior to the dark cycle and measuring the weight of the remaining nestlet at 12 and 24 hours on an Ohaus model CS 200 balance. Percent shredding was calculated based on the initial nestlet weight.

Participants with PWS = settings: cited from earlier work; for weight change, mean difference: p<0.0001

## CO[C@@H]1[C@H](OC(=O)/C=C/c2ccc(OCCN(C)C)cc2)CC[C@]2(CO2)[C@H]1[C@@]1(C)O[C@@H]1CC=C(C)C [Belaronib, Beloranib, reference compound]
C57BL/6 DIO mice [1]; Day 1
  Body weights (expressed as a percentage of day-1 weight): 100.0%
  Body weights (in grams): 46.4 grams
C57BL/6 DIO mice [1]; Day 2
  Body weights (expressed as a percentage of day-1 weight): 98.0%
  Body weights (in grams): 45.5 grams
C57BL/6 DIO mice [1]; Day 3
  Body weights (expressed as a percentage of day-1 weight): 96.1%
  Body weights (in grams): 44.6 grams
C57BL/6 DIO mice [1]; Day 4
  Body weights (expressed as a percentage of day-1 weight): 94.0%
  Body weights (in grams): 43.6 grams
C57BL/6 DIO mice [1]; Day 5
  Body weights (expressed as a percentage of day-1 weight): 91.0%
  Body weights (in grams): 42.2 grams
C57BL/6 DIO mice [1]; Day 6
  Body weights (expressed as a percentage of day-1 weight): 87.7%
  Body weights (in grams): 40.7 grams
C57BL/6 DIO mice [1]; Day 7
  Body weights (expressed as a percentage of day-1 weight): 85.2%
  Body weights (in grams): 39.5 grams
C57BL/6 DIO mice [1]; Day 8
  Body weights (expressed as a percentage of day-1 weight): 83.1%
  Body weights (in grams): 38.5 grams
C57BL/6 DIO mice [1]; Day 9
  Body weights (expressed as a percentage of day-1 weight): 80.6%
  Body weights (in grams): 37.4 grams
C57BL/6 DIO mice [1]; Day 10
  Body weights (expressed as a percentage of day-1 weight): 79.2%
  Body weights (in grams): 36.7 grams
C57BL/6 DIO mice [1]; Day 11
  Body weights (expressed as a percentage of day-1 weight): 77.9%
  Body weights (in grams): 36.1 grams
C57BL/6 DIO mice [1]; Day 12
  Body weights (expressed as a percentage of day-1 weight): 77.1%
  Body weights (in grams): 35.7 grams
C57BL/6 DIO mice [1]; Day 13
  Body weights (expressed as a percentage of day-1 weight): 76.2%
  Body weights (in grams): 35.3 grams
C57BL/6 DIO mice [1]; Day 14
  Body weights (expressed as a percentage of day-1 weight): 75.2%
  Body weights (in grams): 34.8 grams
C57BL/6 DIO mice [1]; Day 15
  Body weights (expressed as a percentage of day-1 weight): 74.4%
  Body weights (in grams): 34.5 grams
C57BL/6 DIO mice [1]; at day 15, Beloranib 0.3 mg/kg SC, vehicle-treated mice lost 15.5%
  body weight lost (percentage of day 1 body weight): 25.6%
C57BL/6 DIO mice [2]; 15-day study, Beloranib 0.3 mg/kg SC, celastrol 0.2 mg/kg IP daily, vehicle 32.6 g
  cumulative food intake, average total for the study: 28.1 g/mouse
C57BL/6 DIO mice [2]; Celastrol compared with positive control Beloranib
  effect on food intake (in words): rebounded
C57BL/6 DIO mice [2]; Day 1
  Food intake (food weights in g/day): 3.1 g/day
C57BL/6 DIO mice [2]; Day 2
  Food intake (food weights in g/day): 1.5 g/day
C57BL/6 DIO mice [2]; Day 3
  Food intake (food weights in g/day): 2.3 g/day
C57BL/6 DIO mice [2]; Day 4
  Food intake (food weights in g/day): 1.9 g/day
C57BL/6 DIO mice [2]; Day 5
  Food intake (food weights in g/day): 1.4 g/day
C57BL/6 DIO mice [2]; Day 6
  Food intake (food weights in g/day): 1.2 g/day
C57BL/6 DIO mice [2]; Day 7
  Food intake (food weights in g/day): 1.1 g/day
C57BL/6 DIO mice [2]; Day 8
  Food intake (food weights in g/day): 1.5 g/day
C57BL/6 DIO mice [2]; Day 9
  Food intake (food weights in g/day): 1.1 g/day
C57BL/6 DIO mice [2]; Day 10
  Food intake (food weights in g/day): 1.9 g/day
C57BL/6 DIO mice [2]; Day 11
  Food intake (food weights in g/day): 2.2 g/day
C57BL/6 DIO mice [2]; Day 12
  Food intake (food weights in g/day): 2.6 g/day
C57BL/6 DIO mice [2]; Day 13
  Food intake (food weights in g/day): 2.2 g/day
C57BL/6 DIO mice [2]; Day 14
  Food intake (food weights in g/day): 2.2 g/day
C57BL/6 DIO mice [2]; Day 15
  Food intake (food weights in g/day): 2.1 g/day
C57BL/6 DIO mice [2]; day 10-11, 0.3 mg/kg SC daily
  food intake after rebound, similar to vehicle: 2.2 g/day/mouse
C57BL/6 DIO mice [2]; reduction initiated on day 2-3, 0.3 mg/kg SC daily
  food intake, nadir: 1.1 g/day/mouse
C57BL/6 DIO mice [3]; Day 1, 12 hour
  Nestlet Shredding (percent of nestlet shredded): 95.5%
C57BL/6 DIO mice [3]; Day 6, 12 hour
  Nestlet Shredding (percent of nestlet shredded): 11.9%
C57BL/6 DIO mice [3]; Day 6, 24 hour
  Nestlet Shredding (percent of nestlet shredded): 15.7%
C57BL/6 DIO mice [3]; Day 11, 12 hour
  Nestlet Shredding (percent of nestlet shredded): 3.8%
C57BL/6 DIO mice [3]; Day 11, 24 hour
  Nestlet Shredding (percent of nestlet shredded): 5.2%
C57BL/6 DIO mice [3]; Day 15, 12 hour
  Nestlet Shredding (percent of nestlet shredded): 27.6%
C57BL/6 DIO mice [3]; Day 15, 24 hour
  Nestlet Shredding (percent of nestlet shredded): 32.9%
Participants with PWS; 1.8 mg beloranib injection biweekly for 26 weeks, 95% CI −10.8 to −5.6
  weight change, mean difference: −8.2%
Participants with PWS; 1.8 mg or 2.4 mg injection biweekly
  most frequent adverse event: Injection site bruising
Participants with PWS; 2.4 mg beloranib injection biweekly for 26 weeks, 95% CI −12.1 to −6.8
  weight change, mean difference: −9.5%
Participants with PWS; imbalance compared to placebo, dosing stopped early
  venous thrombotic events in beloranib-treated participants: two fatal events of pulmonary embolism and two events of deep vein thrombosis
